This test has as its system ethanol-induced gastric mucosal injury. As to the kind of experiment: Prevention of 99.5% ethanol-induced gastric mucosal injury in rats. Type of test: in vivo. The conditions noted are these: for Mucosal injury suppression rate (%): 1 h before 99.5% ethanol 1 ml/animal, n = 10/group. How it is done: Rats were forced to abstain from food and water for 24 hours, and used as experimental subjects. […] When the two drugs were combined, the dose of the combination treatment was set such that the proportion of sucralfate was 1/3 of the dose, and the proportion of famotidine was 2/3 of the dose, or vice versa (i.e., the proportion of sucralfate was 2/3 of the dose, and the proportion of famotidine was 1/3 of the dose). For each of the individual treatments and the combination treatments, a high dose group, a medium dose group, and a low dose group were provided by setting a high dose, a medium dose, and a low dose at a ratio of 9:3:1. Each dose level of the drug was suspended in a 2% aqueous solution of acacia. The suspension was orally administered in a volume of 2 ml/kg body weight, while only the solvent was administered in the same volume for a control group. […] One hour after administration of the test drug, 99.5% ethanol in an amount of 1 ml/animal was administered orally. One hour later, the animal subjects were sacrificed and the stomach removed, treated, and measured for the extent of injuries occurring in the gastric mucosa. The total amount of injuries occurring In the respective animals was calculated to determine the ED50 values for the preventive effect of the test drug on gastric mucosal injury. […]

With `NC(N)=Nc1nc(CSCCC(N)=NS(N)(=O)=O)cs1` [Famotidine, famotidine], for the setting “Rattus norvegicus, po, drug administered alone, P.O., rats, read-out: 50% preventive dose ED50”, the 50% effective dose (ED50) (as a rule, the midpoint of the dose-response relation) worked out at 46.3 mg/kg. For the same molecule, the “Mucosal injury suppression rate (%)” value reads like this: (famotidine alone 10 mg/kg P.O.) 13%; (famotidine alone 30 mg/kg P.O.) 42%; (famotidine alone 90 mg/kg P.O.) 66%.

For sucralfate, for the setting “drug administered alone, P.O., rats”, the “50% preventive dose ED50 (mg/kg)” value was “Sucralfate 21.4 mg/kg”. Also, the “Mucosal injury suppression rate (%)” value (sucralfate alone 10 mg/kg P.O.) is 19%, the “Mucosal injury suppression rate (%)” value (sucralfate alone 30 mg/kg P.O.) was 69% and the “Mucosal injury suppression rate (%)” value (sucralfate alone 90 mg/kg P.O.) amounted to 92%.

Source of the values: patent publication EP1074259A1, “PREVENTIVES FOR ALCOHOLIC GASTRITIS” (CHUGAI SEIYAKU KABUSHIKI KAISHA, priority 1998, dated 1999).
